Experimental data: ChEMBL document CHEMBL3885881, “DrugMatrix”

Species on record: Rattus norvegicus
Experiment: DrugMatrix - Regimen: Daily Repeat
Format: toxicity, organism-based, Sprague-Dawley
Design: regimen Daily Repeat, gender Male, age 6-8 weeks
Details: in vivo, iv, vehicle 100 % SALINE; for ABSOLUTE BASOPHIL / ABSOLUTE EOSINOPHIL / ABSOLUTE LYMPHOCYTE / ABSOLUTE MONOCYTE / ABSOLUTE SEGMENTED NEUTROPHIL / BASOPHIL / EOSINOPHIL / ERYTHROCYTE COUNT / HEMATOCRIT / HEMOGLOBIN / LEUKOCYTE COUNT / LYMPHOCYTE / MEAN CORPUSCULAR HEMOGLOBIN / MEAN CORPUSCULAR HEMOGLOBIN CONCENTRATION / MEAN CORPUSCULAR VOLUME / MONOCYTE / NEUTROPHIL / NUCLEATED RED BLOOD CELLS / PLATELET COUNT: tissue Blood; for ALANINE AMINOTRANSFERASE / ALBUMIN / ALKALINE PHOSPHATASE / ASPARTATE AMINOTRANSFERASE / BLOOD UREA NITROGEN / CARBON DIOXIDE / CHLORIDE / CHOLESTEROL / CREATINE PHOSPHOKINASE / CREATININE / GLUCOSE / LACTATE DEHYDROGENASE / LIPASE / PHOSPHORUS / POTASSIUM / SODIUM / TOTAL BILIRUBIN / TOTAL PROTEIN / URIC ACID: tissue Plasma
[1] = 7 mg/kg, 120 h, dose level Low, time 5 day
[2] = 41 mg/kg, 72 h, dose level High, time 3 day
[3] = 41 mg/kg, 120 h, dose level High, time 5 day

SMILES: CC(=O)N[C@@H]1[C@H](Oc2c3cc4cc2Oc2ccc(cc2Cl)[C@@H](O[C@@H]2O[C@@H](CO)[C@@H](O)[C@H](O)[C@@H]2NC(C)=O)[C@@H]2NC(=O)[C@H](NC(=O)[C@@H]4NC(=O)[C@H]4NC(=O)[C@@H](Cc5ccc(c(Cl)c5)O3)NC(=O)[C@H](N)c3ccc(O)c(c3)Oc3cc(O)cc4c3)c3ccc(O)c(c3)-c3c(O[C@H]4O[C@H](CO)[C@@H](O)[C@@H](O)[C@@H]4O)cc(O)cc3[C@@H](C(=O)O)NC2=O)O[C@@H](CO)[C@@H](O)[C@@H]1O
- ABSOLUTE BASOPHIL [1]: 0 CELLS/uL
- ABSOLUTE EOSINOPHIL [1]: 166 CELLS/uL
- ABSOLUTE LYMPHOCYTE [1]: 15568 CELLS/uL
- ABSOLUTE MONOCYTE [1]: 230.67 CELLS/uL
- ABSOLUTE SEGMENTED NEUTROPHIL [1]: 1568.67 CELLS/uL
- BASOPHIL [1]: 0%
- EOSINOPHIL [1]: 1%
- ERYTHROCYTE COUNT [1]: 5.77 x10E6/uL
- HEMATOCRIT [1]: 36.27%
- HEMOGLOBIN [1]: 13.63 G/DL
- LEUKOCYTE COUNT [1]: 17.53 x10E3/uL
- LYMPHOCYTE [1]: 88.67%
- MEAN CORPUSCULAR HEMOGLOBIN [1]: 23.67 pg
- MEAN CORPUSCULAR HEMOGLOBIN CONCENTRATION [1]: 37.57 G/DL
- MEAN CORPUSCULAR VOLUME [1]: 62.97 fL
- MONOCYTE [1]: 1.33%
- NEUTROPHIL [1]: 9%
- NUCLEATED RED BLOOD CELLS [1]: 0 /100WBC
- PLATELET COUNT [1]: 1190.67 x10E3/uL
- ALANINE AMINOTRANSFERASE [1]: 40.67 u/L
- ALBUMIN [1]: 4.23 G/DL
- ALKALINE PHOSPHATASE [1]: 395 u/L
- ASPARTATE AMINOTRANSFERASE [1]: 84.33 u/L
- BLOOD UREA NITROGEN [1]: 19.33 mg/dL
- CARBON DIOXIDE [1]: 24 mmol/L
- CHLORIDE [1]: 106.67 MEQ/L
- CHOLESTEROL [1]: 59.33 mg/dL
- CREATINE PHOSPHOKINASE [1]: 389.67 u/L
- CREATININE [1]: 0.18 mg/dL
- GLUCOSE [1]: 149 mg/dL
- LACTATE DEHYDROGENASE [1]: 466.67 u/L
- LIPASE [1]: 8.33 u/L
- PHOSPHORUS [1]: 11.47 mg/dL
- POTASSIUM [1]: 5.99 MEQ/L
- SODIUM [1]: 144.47 MEQ/L
- TOTAL BILIRUBIN [1]: 0.2 mg/dL
- TOTAL PROTEIN [1]: 6.03 G/DL
- URIC ACID [1]: 1.17 mg/dL
- ABSOLUTE BASOPHIL [2]: 0 CELLS/uL
- ABSOLUTE EOSINOPHIL [2]: 126.67 CELLS/uL
- ABSOLUTE LYMPHOCYTE [2]: 16661.33 CELLS/uL
- ABSOLUTE MONOCYTE [2]: 515.67 CELLS/uL
- ABSOLUTE SEGMENTED NEUTROPHIL [2]: 1929.67 CELLS/uL
- BASOPHIL [2]: 0%
- EOSINOPHIL [2]: 0.67%
- ERYTHROCYTE COUNT [2]: 5.53 x10E6/uL
- HEMATOCRIT [2]: 35.03%
- HEMOGLOBIN [2]: 13.17 G/DL
- LEUKOCYTE COUNT [2]: 19.23 x10E3/uL
- LYMPHOCYTE [2]: 86.67%
- MEAN CORPUSCULAR HEMOGLOBIN [2]: 23.83 pg
- MEAN CORPUSCULAR HEMOGLOBIN CONCENTRATION [2]: 37.6 G/DL
- MEAN CORPUSCULAR VOLUME [2]: 63.4 fL
- MONOCYTE [2]: 2.67%
- NEUTROPHIL [2]: 10%
- NUCLEATED RED BLOOD CELLS [2]: 0 /100WBC
- PLATELET COUNT [2]: 1404 x10E3/uL
- ALANINE AMINOTRANSFERASE [2]: 41.67 u/L
- ALBUMIN [2]: 4.13 G/DL
- ALKALINE PHOSPHATASE [2]: 271.33 u/L
- ASPARTATE AMINOTRANSFERASE [2]: 67.33 u/L
- BLOOD UREA NITROGEN [2]: 18.33 mg/dL
- CARBON DIOXIDE [2]: 27 mmol/L
- CHLORIDE [2]: 102 MEQ/L
- CHOLESTEROL [2]: 61.67 mg/dL
- CREATINE PHOSPHOKINASE [2]: 181 u/L
- CREATININE [2]: 0.21 mg/dL
- GLUCOSE [2]: 153.67 mg/dL
- LACTATE DEHYDROGENASE [2]: 125.67 u/L
- LIPASE [2]: 8.33 u/L
- PHOSPHORUS [2]: 11.33 mg/dL
- POTASSIUM [2]: 6.69 MEQ/L
- SODIUM [2]: 143.47 MEQ/L
- TOTAL BILIRUBIN [2]: 0.2 mg/dL
- TOTAL PROTEIN [2]: 5.87 G/DL
- URIC ACID [2]: 1.37 mg/dL
- ABSOLUTE BASOPHIL [3]: 0 CELLS/uL
- ABSOLUTE EOSINOPHIL [3]: 0 CELLS/uL
- ABSOLUTE LYMPHOCYTE [3]: 12482 CELLS/uL
- ABSOLUTE MONOCYTE [3]: 440.67 CELLS/uL
- ABSOLUTE SEGMENTED NEUTROPHIL [3]: 1610.67 CELLS/uL
- BASOPHIL [3]: 0%
- EOSINOPHIL [3]: 0%
- ERYTHROCYTE COUNT [3]: 5.88 x10E6/uL
- HEMATOCRIT [3]: 36.7%
- HEMOGLOBIN [3]: 13.8 G/DL
- LEUKOCYTE COUNT [3]: 14.53 x10E3/uL
- LYMPHOCYTE [3]: 86%
- MEAN CORPUSCULAR HEMOGLOBIN [3]: 23.47 pg
- MEAN CORPUSCULAR HEMOGLOBIN CONCENTRATION [3]: 37.6 G/DL
- MEAN CORPUSCULAR VOLUME [3]: 62.47 fL
- MONOCYTE [3]: 3%
- NEUTROPHIL [3]: 11%
- NUCLEATED RED BLOOD CELLS [3]: 0 /100WBC
- PLATELET COUNT [3]: 1300.33 x10E3/uL
- ALANINE AMINOTRANSFERASE [3]: 57.67 u/L
- ALBUMIN [3]: 4.3 G/DL
- ALKALINE PHOSPHATASE [3]: 395 u/L
- ASPARTATE AMINOTRANSFERASE [3]: 79.33 u/L
- BLOOD UREA NITROGEN [3]: 18.67 mg/dL
- CARBON DIOXIDE [3]: 29.67 mmol/L
- CHLORIDE [3]: 102.33 MEQ/L
- CHOLESTEROL [3]: 69.67 mg/dL
- CREATINE PHOSPHOKINASE [3]: 275 u/L
- CREATININE [3]: 0.19 mg/dL
- GLUCOSE [3]: 177 mg/dL
- LACTATE DEHYDROGENASE [3]: 229 u/L
- LIPASE [3]: 9 u/L
- PHOSPHORUS [3]: 13.2 mg/dL
- POTASSIUM [3]: 6.79 MEQ/L
- SODIUM [3]: 148.17 MEQ/L
- TOTAL BILIRUBIN [3]: 0.17 mg/dL
- TOTAL PROTEIN [3]: 6.3 G/DL
- URIC ACID [3]: 1.83 mg/dL
